The text below walks through data of PubChem BioAssay (NCI).

Holding throughout (assay): inhibition of tumour cell growth, NCI panel, 48 h
In assay [1] the test system is HCT-116 colon.
Assay [2] deals with HCC-2998 colon.
For assay [3], the system named is A498 renal.
Assay [4] has as its system NCI-H522 lung.
Assay [5] relates to IGROV1 ovarian.
For assay [6], the system named is MDA-MB-231 breast.
The test system of assay [7] is HOP-62 NSCLC.
For assay [8], the system named is K-562 leukemia.
The test system of assay [9] is SK-OV-3 ovarian.
The test system of assay [10] is M14 melanoma.

The structures appear in SMILES notation.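 Step 1: Grow cells in 96-well plates. Step 2: Expose to compound for 48 hours at 5 concentrations. Step 3: Interpolate endpoints linearly; if unreached, use highest concentration. At the GI50, growth is halved. TGI marks complete inhibition of growth.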 *1 amine or outer side, *2 acyl side, *3 side chain or, on linkers, in order; H or OH if unused. Where a SMILES comes first, the peptide text is derived from it. Bridges are numbered along the chain shown (N, C = ends). [ ]: non-standard residue; d: D form. ξ: configuration not given here. X35 = CC[C@H](C)[C@@H](N[*:1])[C@@H](O)CC(=O)O[C@H](C(=O)[C@H](C)C(=O)[*:2])C(C)C; NMeY = CN[C@@H](Cc1ccc(O)cc1)C(=O)O; dNMeL = CN[C@H](CC(C)C)C(=O)O; ξΔPro = O=C(O)C1C=CCN1

Take `O=c1nc2ccc3sc4ccccc4c(=O)c3n2c(=O)[nH]1`: the TGI in assay [1], in assay [2], in assay [3], in [4], in [5] and in assay [6] was above 100 µM each time. The TGI in assay [7] and in [8] was above 100 µM in each case.

`COc1cc2c(c(OC)c1)C(=O)O[C@H](C)CCCC/C=C/C2`: the TGI in [1] was 38.2 µM; in assay [2], above 32.9 µM; in assay [3], above 100 µM; in assay [4], 24 µM; in assay [5] it was above 31.1 µM; in assay [9], above 100 µM. Further, the TGI in assay [10] is above 32.2 µM; in assay [6], above 31.9 µM; in [7], 24.7 µM; in assay [8], above 100 µM.

For the compound `CCOC(=O)Cc1csc(N=Nc2c(O)[nH]c3ccccc23)n1`, the TGI in [1] is above 100 µM; in assay [2] it was above 100 µM; in assay [3], above 100 µM; in assay [4] it was 93.5 µM; in assay [5], above 100 µM; in assay [9] it was above 100 µM. Further, the TGI in assay [10], in assay [6], in assay [7] and in assay [8] was above 100 µM throughout.

On to `CC(=Nc1cc(Cl)cc(Cl)c1)c1ccncc1`, for which the TGI in [1], in [2], in [3], in [4], in [5] and in assay [9] was above 100 µM throughout. Also, the TGI in assay [10], in assay [6], in assay [7] and in assay [8] was above 100 µM in each case.

In the case of `CC[C@H](C)[C@H]1NC(=O)[C@@H](NC(=O)[C@@H](CC(C)C)N(C)C(=O)C2C=CCN2)[C@@H](C)OC(=O)[C@H](Cc2ccc(OC)cc2)N(C)C(=O)[C@@H]2CCCN2C(=O)[C@H](CC(C)C)NC(=O)[C@@H](C)C(=O)[C@H](C(C)C)OC(=O)C[C@@H]1O` (some centres not stated) (H-[ξΔPro][dNMeL]T[X35]LP[NMeY](Me); ester 3-C), the TGI in assay [1] is 5.41 µM; in [2] it was 0.0488 µM; in assay [3], 0.0139 µM; in assay [4] it was below 0.005 µM; in [5], 0.115 µM; in [9], 0.183 µM. In addition, the TGI was 0.111 µM in [10], below 0.0464 µM in [6], 0.0363 µM in assay [7] and above 50 µM in assay [8].

For `CC1CN=C(c2ccc(-c3nc(-c4ccc(C5=NCC(C)N5)cc4)nc(N(C)C)n3)cc2)N1` (configuration not stated), the TGI stood at 3.16 µM in assay [1]; 3.76 µM in [2]; 6.7 µM in assay [3]; 3.2 µM in assay [4]; 18 µM in assay [5]; 5.54 µM in [9]. Besides, the TGI in assay [10] was found to be 8.68 µM; in assay [6] it was 3.05 µM; in assay [7] it was 5.35 µM; in assay [8] it was 6 µM.

Turning to `O=C1C(Cl)=C(c2ccc([N+](=O)[O-])cc2)C(=O)c2c(O)cccc21`, the TGI was found to be 3.55 µM in assay [1]; 6.24 µM in assay [2]; 12.5 µM in [3]; 0.545 µM in assay [4]; 4.34 µM in assay [5]; 8.64 µM in assay [9]. The TGI in assay [10] was 3.66 µM; in assay [6], 3.13 µM; in assay [7] it was 14.8 µM; in assay [8], above 100 µM.

In the case of `NC(=S)N/N=C1\CCCC1C(O)(C(F)(F)Cl)C(F)(F)Cl` (configuration not stated), the TGI in assay [1], in assay [2], in assay [3], in assay [4], in assay [5] and in assay [9] was above 10 µM throughout. The TGI in assay [10], in [6], in assay [7] and in assay [8] was above 10 µM in each case.

Turning to `Cc1ccc(NC2=N/C(=C/c3ccco3)C(Cl)=N2)cc1`, the TGI was above 100 µM in [1]; above 49.7 µM in assay [2]; above 100 µM in assay [3]; above 100 µM in assay [4]; above 100 µM in assay [5]; above 100 µM in assay [9]. In addition, the TGI in [10], in assay [6], in [7] and in assay [8] was above 100 µM throughout.

In the case of `CC(C)(CN1CCCCC1)C(/C=C/c1ccccc1)=N\NC(=O)N/N=C(/C=C/c1ccccc1)C(C)(C)CN1CCCCC1`, the TGI in assay [1] came out at 2.93 µM; in assay [2] it was 1.86 µM; in assay [3], 2.95 µM; in assay [4], 3.35 µM; in assay [5], 6.07 µM; in assay [9], 9.52 µM. The TGI in assay [10] came to 3.19 µM; in [6], 2.81 µM; in assay [7], 3.71 µM; in assay [8] it was 2.81 µM.

`C=C(CCOC)CCC1CCCCC(=C)[C@H]1O` (some centres not stated): the TGI in assay [1], in assay [3], in assay [4], in assay [5], in assay [9] and in assay [10] was above 100 µM throughout. The TGI in [6], in assay [7] and in [8] was above 100 µM each time.

On to `C=CCOC1(CC=C)C(=O)OC2C(O)COC21O` (configuration not stated), for which the TGI in assay [1], in assay [2], in assay [3], in assay [4], in assay [5] and in [9] was above 100 µM throughout. The TGI in [10], in assay [6], in assay [7] and in [8] was above 100 µM each time.

In the case of `N#Cc1c(N2CCN(c3ccc([N+](=O)[O-])cc3)CC2)[n+](=O)c2ccc(-c3ccc([N+](=O)[O-])cc3)cc2n1[O-]`, the TGI in assay [1] is above 100 µM; in [2], above 57.3 µM; in [3], above 100 µM; in assay [4], above 100 µM; in assay [5], above 77.8 µM; in assay [9], above 100 µM. The TGI in assay [10] was above 58.9 µM; in assay [6] it was above 48.6 µM; in [7], 23.8 µM; in [8] it was above 100 µM.

Regarding `O=c1[nH]c2cc([N+](=O)[O-])c(Nc3c4ccccc4nc4ccccc34)c([N+](=O)[O-])c2[nH]1`, the TGI was 7.39 µM in assay [1]; 5.75 µM in assay [2]; 6.86 µM in [3]; 3.63 µM in assay [4]; 3.04 µM in assay [5]; 24.7 µM in [9]. The TGI was 5.14 µM in assay [10], 17.5 µM in [6], 11.6 µM in assay [7] and 6.96 µM in assay [8].

On to `CC(C#N)N(CCc1ccccc1)C(=O)c1ccccc1` (configuration not stated), for which the TGI in assay [1], in assay [2], in assay [3], in [4], in [5] and in [9] was above 100 µM in each case. For the same compound, the TGI in assay [10], in assay [6], in assay [7] and in assay [8] was above 100 µM each time.

Take `COc1cc(S(=O)(=O)Nc2ccc(-c3csc(/N=C\c4ccccc4)n3)cc2)ccc1Cl`: the TGI in assay [1], in [3], in assay [4], in assay [5], in [9] and in [10] was above 100 µM each time. For the same compound, the TGI in assay [6], in assay [7] and in [8] was above 100 µM throughout.

In the case of `Nn1c(Sc2nc3ccccc3c(=O)n2N)nc2ccccc2c1=O`, the TGI in assay [1] came to 12.6 µM; in assay [2], 30.7 µM; in [3], 36.5 µM; in assay [4], 3.57 µM; in [5] it was 23.3 µM; in assay [9] it was 54.6 µM. The TGI was 4.02 µM in assay [10], 24.4 µM in assay [6], 35.9 µM in assay [7] and above 100 µM in [8].

Consider `COc1cc2c(cc1O)CCN(C)[C@H]2Cc1ccc(Oc2c(O)c(OC)cc3c2C[C@H]2c4c(c(OC)c(OC)c(OC)c4-3)CCN2C)cc1`, for which the TGI worked out at 7.98 µM in assay [1]; 8.09 µM in assay [2]; 12.7 µM in [3]; 11.2 µM in assay [4]; 10.7 µM in assay [5]; 10.5 µM in [9]. Moreover, the TGI in assay [10] turned out to be 10.9 µM; in assay [6] it was 9.47 µM; in assay [7], 11.8 µM; in assay [8] it was 3.33 µM.

Turning to `Cn1c2ccc(C3=NCCN3)cc2c2cc(C3=NCCN3)ccc21`, the TGI in assay [1], in assay [3], in assay [4], in assay [5], in assay [9] and in assay [10] was above 100 µM each time. For the same compound, the TGI in assay [6], in assay [7] and in assay [8] was above 100 µM each time.

As to `COC(=O)[C@](C)(Cc1ccccc1)NC(=O)[C@@H](C)N1[C@@H](c2ccccc2)COC1(C)C`, the TGI was above 100 µM in assay [1]; above 100 µM in assay [3]; 99.3 µM in assay [4]; above 100 µM in assay [5]; above 100 µM in assay [9]; above 100 µM in assay [10]. Moreover, the TGI in assay [6], in assay [7] and in [8] was above 100 µM each time.

As to `COc1ccccc1NC(=S)N/N=C/c1ccccn1`, the TGI in assay [1] came to 0.639 µM; in [2], 32.9 µM; in assay [3] it was 5.04 µM; in [4], 10.9 µM; in assay [9], 34.8 µM; in [10], 7.69 µM. The figures for the TGI in assay [6], in assay [7] and in assay [8] were above 60.1 µM, 25.6 µM and above 31.6 µM, respectively.

Turning to `COC(=O)c1cc(C)ccc1/C=C1\Cc2c(C)cc(C)cc2C1=O`, the TGI is above 100 µM in [1]; above 100 µM in [2]; 76.4 µM in assay [3]; above 100 µM in assay [4]; above 100 µM in assay [5]; above 100 µM in assay [10]. Moreover, the TGI in assay [6] is above 58.4 µM; in [7] it was 32.4 µM; in assay [8], above 100 µM.

On to `Cc1cc2nc(-c3c(N)ncc(C#N)c3-c3ccc(Cl)cc3)[nH]c2cc1C`, for which the GI50 in assay [1] is 3.47 µM; in assay [2] it was 20.9 µM; in [3] it was 11.8 µM; in [4], 4.07 µM; in assay [5], 18.7 µM; in [9] it was 11.9 µM. Further, the GI50 in [6] was 10.5 µM; in assay [7], 6.36 µM; in assay [8], 31.5 µM. For the same compound, the TGI in assay [1] was 19.7 µM; in [2] it was above 100 µM; in assay [3], 59.2 µM; in [4], 27.9 µM; in assay [5], above 100 µM; in assay [9] it was 27.9 µM. The TGI in [6] is 44.2 µM; in [7], 21.7 µM; in [8] it was above 100 µM.

As to `C[C@]12CC[C@H]3[C@@H](CCC4=C(Br)C(=O)C=C[C@@]43O)[C@@H]1CCC2=O`, the TGI in assay [1] is 80.1 µM; in assay [3] it was above 100 µM; in assay [4], 38.1 µM; in assay [5], above 100 µM; in [9] it was above 100 µM; in [10] it was above 100 µM. Further, the TGI in [6], in assay [7] and in [8] was above 100 µM throughout.

Consider `NC1c2c(Cl)sc(Cl)c2C(=O)C1O` (configuration not stated), for which the TGI in assay [1] is above 100 µM; in assay [2] it was 30.7 µM; in assay [3], above 100 µM; in [4] it was 41.6 µM; in assay [5], above 100 µM; in assay [9], above 100 µM. Also, the TGI in assay [10], in assay [6] and in assay [8] was above 100 µM each time.

On to `CC(C)(Cc1ccccc1)N1C(=O)N1C(C)(C)Cc1ccccc1`, for which the TGI in assay [1] is above 100 µM; in assay [2], above 100 µM; in assay [3], above 100 µM; in assay [4] it was 60.6 µM; in [5], above 100 µM; in assay [9], above 100 µM. Besides, the TGI in [10], in assay [6] and in assay [8] was above 100 µM each time.
